Converted amounts (≈) assume the structure as drawn.
Details: not given

Compound	logP	solubility
OC(Cn1cncn1)(c1ccc(F)cc1)c1ccccc1F (stereo not given)	2.29	–
CC(CCC(=O)NCC(=O)O)C1CCC2C3CCC4CC(O)CCC4(C)C3CC(O)C12C (stereo not given)	2.25	–
NC(=O)N=NC(N)=O	-1.7	–
O=[N+]([O-])c1ccc(Oc2c(Cl)cc(Cl)cc2Cl)cc1	4.97	–
CC(C)(C)[C@@H](O)[C@H](Cc1ccc(Cl)cc1Cl)n1cncn1	3.8	–
CCNC(N)=S	-0.21	–

Continued, values first:

logP	solubility	Compound
4.5	–	CC1=CCC(C(C)C)=CC1
4.3	–	CCCCC(OC(Cc1ccccc1)C(=O)N1CCC(OCOC)CC1)C(=O)NC(CC1CCCCC1)C(O)CC(C(=O)NCCCNc1n[nH]c(N)n1)C(C)C (stereo not given)
–	2990 mM (≈ 500000 µg/mL)	Cc1ncc(CO)c(C=O)c1O
0.12	–	c1ncncn1
0.03	–	CCCCCNC(=O)CCC(NS(=O)(=O)c1ccccc1)C(=O)O (stereo not given)
3.95	–	C=CCOc1ccccc1OCC(CNC(C)C)OC(=O)CCC (stereo not given)
2.1	–	CCN1CCC[C@H]1CNC(=O)c1c(OC)ccc(Br)c1OC
0.47	–	NC(Cc1ccc(O)c(O)c1)C(=O)OCC1CCCCO1 (stereo not given)
3.3	–	Cc1ccc(C(=O)CS(=O)(=O)c2ccc(C)cc2)cc1
2.54	–	O=C(Nc1ccc(Cl)cc1)c1cc([N+](=O)[O-])ccc1O
1.7	–	O=[N+]([O-])c1cc(N(CCO)CCO)ccc1NCCO
0.1	–	CCCCc1ccc(NC(=O)CN(CC(=O)O)CC(=O)O)cc1Br
-1.45	–	CN1C(=O)C(O)CC1c1cccnc1 (stereo not given)
-0.78	–	C=COCCn1cnc2[nH]c(=O)n(C)c(=N)c21
4.05	–	O=C(c1ccc(Cl)cc1)c1cc(F)ccc1O
2.7	–	Cc1ccc(C(=O)CS(=O)(=O)c2ccccc2)cc1

Same assay, conditions: 20 °C

Compound	solubility
COP(=O)(OC)OC(=CCl)c1cc(Cl)c(Cl)cc1Cl	0.0301 mM (≈ 11 µg/mL)
Cc1cncc(C)c1	308 mM (≈ 33000 µg/mL)
CCC(CC)C(=O)O	155 mM (≈ 18000 µg/mL)
CCOC(=O)C(O)(c1ccc(Cl)cc1)c1ccc(Cl)cc1	0.0351 mM (≈ 11.4 µg/mL)
CCN(C(=O)n1nnn(-c2ccccc2Cl)c1=O)C1CCCCC1	0.00658 mM (≈ 2.3 µg/mL)
ClCC(Br)CBr (stereo not given)	4.69 mM (≈ 1110 µg/mL)

Same assay, conditions: 22 °C

Compound	solubility
O=[N+]([O-])c1ccc(Oc2c(Cl)cc(Cl)cc2Cl)cc1	0.0024 mM (≈ 0.764 µg/mL)

Same assay, conditions: 22.0 °C

log10 OH rate constant (cm³/molecule/s)	Compound
-14.1	COC(F)(F)C(F)(F)C(F)(F)C(F)(F)F

Same assay, conditions: 23 °C

solubility	Compound
0.000136 mM (≈ 0.0397 µg/mL)	Clc1ccc(Cl)c(-c2ccc(Cl)c(Cl)c2)c1

Same assay, conditions: 23.0 °C

log10 OH rate constant (cm³/molecule/s)	Compound
-10.2	CC1=CC[C@@]23CC1C(C)(C)[C@@H]2CC[C@H]3C
-10.3	C=C1C2CCC(C2)C1(C)C (stereo not given)
-11.2	COC(OC)OC
-10.8	CC(=O)C(C)CO (stereo not given)

Same assay, conditions: 24 °C

Compound	solubility
CCCCN(CC)N=O	92.2 mM (≈ 12000 µg/mL)
CN(Cc1ccccc1)N=O	30 mM (≈ 4510 µg/mL)

Same assay, conditions: 24.0 °C

Compound	log10 OH rate constant (cm³/molecule/s)
Clc1cc(Cl)cc(-c2ccccc2)c1	-11.4
COc1ccccc1OC	-10.5

Same assay, conditions: 25 °C

Compound	solubility
O=C(O)C1CCCCC1	35.9 mM (≈ 4600 µg/mL)
C#CCN1C(=O)COc2cc(F)c(N3C(=O)C4=C(CCCC4)C3=O)cc21	0.00505 mM (≈ 1.79 µg/mL)
O=[N+]([O-])c1cc(Cl)ccc1Cl	0.0729 mM (≈ 14 µg/mL)
ClC(Cl)=C(Cl)C(Cl)=C(Cl)Cl	0.0123 mM (≈ 3.2 µg/mL)
c1ccc2c(c1)ccc1c3ccccc3ccc21	8.76e-06 mM (≈ 0.002 µg/mL)
CCCCCCCCCCCCCC	1.97e-05 mM (≈ 0.00391 µg/mL)
O=C1OC(=O)c2ccccc21	41.9 mM (≈ 6200 µg/mL)
CCc1ccccc1O	43.7 mM (≈ 5340 µg/mL)
CC1(C)C2CC3OC3(C)C1C2 (stereo not given)	2.55 mM (≈ 388 µg/mL)
Clc1cccc(Cl)c1Cl	0.0992 mM (≈ 18 µg/mL)
CC(Br)CBr (stereo not given)	7.15 mM (≈ 1440 µg/mL)
CCC(Cl)CC	2.34 mM (≈ 249 µg/mL)

Continued, values first:

solubility	Compound
0.00044 mM (≈ 0.0867 µg/mL)	Clc1cc2ccccc2cc1Cl
3.8 mM (≈ 815 µg/mL)	CCOC(=O)COc1ccc(Cl)cc1
12 mM (≈ 2000 µg/mL)	CC(C)(C)c1ccc(O)c(O)c1
4.46 mM (≈ 456 µg/mL)	C#Cc1ccccc1
18 mM (≈ 2850 µg/mL)	OCc1cccc2ccccc12
0.0562 mM (≈ 14.8 µg/mL)	CCCOC(=O)COc1ccc(Cl)cc1Cl
0.574 mM (≈ 199 µg/mL)	C[C@]12C[C@H](O)[C@H]3[C@@H](CCC4=CC(=O)CC[C@@]43C)[C@@H]1CC[C@@H]2C(=O)CO
9.51e-05 mM (≈ 0.0317 µg/mL)	CCCCCCCCOC(=O)COc1ccc(Cl)cc1Cl
0.0121 mM (≈ 2.5 µg/mL)	CC(C)(C)c1cccc(C(C)(C)C)c1O
5.59 mM (≈ 762 µg/mL)	Cc1cc(C)c(C)c(O)c1

Same assay, conditions: 25.0 °C

log10 OH rate constant (cm³/molecule/s)	Compound
-11.3	COCOC
-11.4	CCCCCCCl
-11	CCNC(=O)OC
-10.6	COCCOC
-13.3	FC(F)(F)C(Cl)Br (stereo not given)
-10.7	CCCCOCC=O

Compound	log10 OH rate constant (cm³/molecule/s)
C=C(C)C(=O)OC	-10.6
CCSC(=O)N(CC)C1CCCCC1	-10.5

Same assay, conditions: 27.0 °C

log10 OH rate constant (cm³/molecule/s)	Compound
-9.69	Cc1cccc(O)c1O

Same assay, conditions: 30 °C

Compound	solubility
Nc1ccccc1[N+](=O)[O-]	10.6 mM (≈ 1470 µg/mL)
CCOC(=O)CCl	158 mM (≈ 19400 µg/mL)
Fc1ccccc1	16 mM (≈ 1540 µg/mL)

Same assay, conditions: pH 7.0

Compound	logD
Cc1nn(-c2cc(NS(C)(=O)=O)c(Cl)cc2Cl)c(=O)n1C(F)F	0.99

Same assay, conditions: pH 7.4

logD	Compound
2.38	COc1c(C)c2c(c(O)c1C/C=C(\C)CCC(=O)OCCN1CCOCC1)C(=O)OC2

From the OPERA property sets (Mansouri et al. 2018)
